Measurements from patent US20240132431A1, “METHOD FOR ALKYLATING ACIDIC FUNCTIONAL GROUP” (Chugai Seiyaku Kabushiki Kaisha, priority 2021, published 2024).

Biological target: T1, Bcl-2 protein (Recombinant Human Bcl-2 Protein) (Homo sapiens, UniProt P10415)
T1 construct: purchased Novus NBP2-34889
Assay: Binding evaluation of mixture library compounds to Bcl-2 using AS-MS (affinity selection mass spectrometry)
Conditions: AS-MS on the mixture of 1200 library compounds, ASMS Ratio(%)=(A−C)/B×100; for ASMS ratio (%) n = 1: replicate n = 1; for ASMS ratio (%) n = 2: replicate n = 2
How it was run: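 Readout is ASMS Ratio (%), (A−C)/B×100, from reversed-phase LC/MS of SEC-passed extracts, with protein-free unfiltered standard (B) and protein-free SEC blank (C). Recombinant human Bcl-2 at 20 μM final met ~1200 pooled compounds at […] each for 1 h, 23° C., dark, in Tris-HCl pH 7.4 buffer.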

T1 sequence (P10415 whole entry): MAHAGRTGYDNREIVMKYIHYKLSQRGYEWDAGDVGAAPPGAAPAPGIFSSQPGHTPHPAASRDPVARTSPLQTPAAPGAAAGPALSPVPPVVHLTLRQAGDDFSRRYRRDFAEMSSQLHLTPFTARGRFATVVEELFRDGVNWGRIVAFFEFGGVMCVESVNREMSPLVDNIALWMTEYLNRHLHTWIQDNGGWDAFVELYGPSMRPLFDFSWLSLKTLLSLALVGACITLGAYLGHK

Row | Compound | ASMS ratio (%) n = 1 [%] | ASMS ratio (%) n = 2 [%]
1 | CCOc1cncc(-c2ccc(C(=O)N3CCN(c4ccc(C(=O)Nc5ccc(OC)cc5)nn4)CC3)c3ccccc23)c1 [B1O014-01, 6-[4-[4-(5-Ethoxypyridin-3-yl)naphthalene-1-carbonyl]piperazin-1-yl]-N-(4-methoxyphenyl)pyridazine-3-carboxamide] | 2.5 | 0.2
2 | CCOc1cccc(-c2cc(C(=O)N3CCN(c4ccc(C(=O)Nc5ccc(OC)cc5)nn4)CC3)cc(C(C)(C)C)c2)c1 [B1O015-01, 6-[4-[3-tert-Butyl-5-(3-ethoxyphenyl)benzoyl]piperazin-1-yl]-N-(4-methoxyphenyl)pyridazine-3-carboxamide] | 6.0 | −2.7
3 | CCOc1cncc(-c2cc(C(=O)N3CCN(c4ccc(C(=O)Nc5ccc(OC)cc5)nn4)CC3)cc(C(C)(C)C)c2)c1 [B1O016-01, 6-[4-[3-tert-Butyl-5-(5-ethoxypyridin-3-yl)benzoyl]piperazin-1-yl]-N-(4-methoxyphenyl)pyridazine-3-carboxamide] | 6.6 | 0.7
4 | CCOc1cccc(-c2cc(C(=O)N3CCN(c4ccc(C(=O)Nc5ccc(OC)cc5)nn4)CC3)cc(C(F)(F)F)c2)c1 [B1O017-01, 6-[4-[3-(3-Ethoxyphenyl)-5-(trifluoromethyl)benzoyl]piperazin-1-yl]-N-(4-methoxyphenyl)pyridazine-3-carboxamide] | 2.5 | 0.0
5 | CCOc1cncc(-c2cc(C(=O)N3CCN(c4ccc(C(=O)Nc5ccc(OC)cc5)nn4)CC3)cc(C(F)(F)F)c2)c1 [B1O018-01, 6-[4-[3-(5-Ethoxypyridin-3-yl)-5-(trifluoromethyl)benzoyl]piperazin-1-yl]-N-(4-methoxyphenyl)pyridazine-3-carboxamide] | 1.0 | 3.2
6 | CCOc1cccc(C#Cc2cc(C(=O)N3CCN(c4ccc(C(=O)Nc5ccc(OC)cc5)nn4)CC3)cc(C(F)(F)F)c2)c1 [B1O019-01, 6-[4-[3-[2-(3-Ethoxyphenyl)ethynyl]-5-(trifluoromethyl)benzoyl]piperazin-1-yl]-N-(4-methoxyphenyl)pyridazine-3-carboxamide] | 0.6 | 0.2
7 | CCOc1cncc(C#Cc2cc(C(=O)N3CCN(c4ccc(C(=O)Nc5ccc(OC)cc5)nn4)CC3)cc(C(F)(F)F)c2)c1 [B1O020-01, 6-[4-[3-[2-(5-Ethoxypyridin-3-yl)ethynyl]-5-(trifluoromethyl)benzoyl]piperazin-1-yl]-N-(4-methoxyphenyl)pyridazine-3-carboxamide] | 8.6 | −0.5
8 | CCOc1cccc(-c2cnn(-c3cc(C(=O)N4CCN(c5ccc(C(=O)Nc6ccc(OC)cc6)nn5)CC4)cc(C(F)(F)F)c3)c2)c1 [B1O021-01, 6-[4-[3-[4-(3-Ethoxyphenyl)pyrazol-1-yl]-5-(trifluoromethyl)benzoyl]piperazin-1-yl]-N-(4-methoxyphenyl)pyridazine-3-carboxamide] | 2.9 | −1.2
9 | CCOc1cncc(-c2cnn(-c3cc(C(=O)N4CCN(c5ccc(C(=O)Nc6ccc(OC)cc6)nn5)CC4)cc(C(F)(F)F)c3)c2)c1 [B1O022-01, 6-[4-[3-[4-(5-Ethoxypyridin-3-yl)pyrazol-1-yl]-5-(trifluoromethyl)benzoyl]piperazin-1-yl]-N-(4-methoxyphenyl)pyridazine-3-carboxamide] | 5.6 | −1.2
10 | CCOc1cccc(-c2csc(C(=O)N3CCN(c4ccc(C(=O)Nc5ccc(OC)cc5)cc4)CC3)c2)c1 [B1O023-01, 4-[4-[4-(3-Ethoxyphenyl)thiophene-2-carbonyl]piperazin-1-yl]-N-(4-methoxyphenyl)benzamide] | 12.4 | −0.3
